Consider 14 compounds from ChEMBL document CHEMBL1201862, “PubChem BioAssay data set” (2004).

Some test systems named below: DLD-1; SK-OV-3; HOP-18; MCF7; SK-MEL-5; DMS-273; SK-MEL-2; XF498; KM-20L2; DMS-114; SNB-78; MOLT-4; M19-MEL; A498; DU-145; ACHN; BT-549; MDA-MB-231; TK-10; LXFL 529.
Common to all, as to assay: NCI tumour cell line growth inhibition, 48 h

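Cells were grown in 96-well plates and exposed to each compound for 48 hours at five concentrations; endpoints were interpolated linearly between bracketing concentrations, or set to the highest concentration if not reached. Here, GI50 denotes the concentration required for 50% inhibition of growth.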 The source made the active and inactive calls. Rule as the data show it: active = GI50 up to about 1.1 µM and inactive = higher. Bounds are passed on as bounds.

As to `O=c1ccn([C@@H]2C=C(CO)[C@@H](O)[C@H]2O)c(=O)[nH]1`, the GI50 in the assay with DLD-1, in the assay on SK-OV-3, in the assay with HOP-18, with MCF7, with SK-MEL-5 and with DMS-273 was > 625 µM (inactive) in each case. Also, the GI50 is > 625 µM (inactive) in the assay with SK-MEL-2, < 0.0625 µM (active) with XF498 and > 625 µM (inactive) in the assay with KM-20L2.

With `COc1ccc(C2COc3cc(OC(C)=O)c(OC(C)=O)cc3C2)cc1` (configuration not stated), the GI50 in the assay with DLD-1 was 20.5 µM (inactive); in the assay with DMS-114 it was 5.65 µM (inactive); with SK-OV-3, 40.1 µM (inactive); in the assay with HOP-18, 2.78 µM (inactive); in the assay with MCF7, 29.4 µM (inactive); in the assay on SNB-78, 26.1 µM (inactive). Besides, the GI50 was 5.66 µM (inactive) in the assay with MOLT-4; 25.9 µM (inactive) with SK-MEL-5; 17.9 µM (inactive) with DMS-273; 14.2 µM (inactive) with M19-MEL; 31.7 µM (inactive) in the assay on SK-MEL-2; 8.49 µM (inactive) in the assay on XF498. Further, the GI50 in the assay on KM-20L2 was 31.4 µM (inactive); with A498 it was 4.54 µM (inactive).

For the compound `O=c1cnn(C/C=C/CBr)c(=O)[nH]1`, the GI50 with DU-145 is 24.2 µM (inactive); with MCF7, 12.9 µM (inactive); in the assay on MOLT-4, 19.6 µM (inactive); with SK-MEL-5, 13.1 µM (inactive); with ACHN it was 16.7 µM (inactive); in the assay on BT-549, 527 nM (active). The GI50 in the assay on SK-MEL-2 was 17.1 µM (inactive); in the assay on A498, 14.9 µM (inactive); in the assay with MDA-MB-231 it was 21.9 µM (inactive).

For the compound `CCCN1C(=O)/C(=C(/O)C(=O)OCC)C(c2ccc(OC)c(OC)c2)C1=O` (configuration not stated), the GI50 with DLD-1, with DMS-114, in the assay on SK-OV-3, with HOP-18, with MCF7 and in the assay with SNB-78 was > 100 µM (inactive) in each case. Besides, the GI50 in the assay on MOLT-4, in the assay on SK-MEL-5, with DMS-273, in the assay with M19-MEL, in the assay with SK-MEL-2 and with XF498 was > 100 µM (inactive) in each case. Also, the GI50 with KM-20L2 and in the assay with A498 was > 100 µM (inactive) in each case.

As for `COc1cccc2c1C(=O)c1c(O)c3c(c(O)c1C2=O)C[C@@](O)(C(=O)CN1CCOCC1)C[C@@H]3OC1CC(N)C(O)C(C)O1` (some centres not stated), the GI50 was 7.71 µM (inactive) in the assay on DLD-1; 3.52 µM (inactive) with DMS-114; 7.62 µM (inactive) in the assay on SK-OV-3; 0.000832 µM (active) with HOP-18; 0.938 µM (active) with MCF7; 3.11 µM (inactive) in the assay with SK-MEL-5. In addition, the GI50 is 2.23 µM (inactive) in the assay with DMS-273; 3.39 µM (inactive) in the assay with M19-MEL; 9.48 µM (inactive) with SK-MEL-2; 2.45 µM (inactive) with XF498; 9.77 µM (inactive) with KM-20L2; 8.55 µM (inactive) with A498.

With `CCCCN(C)/N=N/c1[nH]cnc1C(N)=O`, the GI50 in the assay with DLD-1 is > 100 µM (inactive); in the assay with DMS-114, > 100 µM (inactive); in the assay with SK-OV-3, 35.8 µM (inactive); with HOP-18, > 100 µM (inactive); with MCF7, > 100 µM (inactive); in the assay with SNB-78, > 100 µM (inactive). In addition, the GI50 with MOLT-4 is 41.2 µM (inactive); with SK-MEL-5 it was > 100 µM (inactive); in the assay on DMS-273, 58.7 µM (inactive); with M19-MEL, > 100 µM (inactive); with SK-MEL-2, 44.6 µM (inactive); with XF498 it was 32.4 µM (inactive). Also, the GI50 in the assay with KM-20L2 was > 50.2 µM (inactive); with A498, > 71.1 µM (inactive).

`CCOC(=O)CN(CC)C(=O)NC12CC3CC(CC(C3)C1)C2`: the GI50 in the assay on DLD-1 was 65.8 µM (inactive); in the assay on DMS-114 it was 134 µM (inactive); in the assay with SK-OV-3, 218 µM (inactive); in the assay on HOP-18, 148 µM (inactive); in the assay with MCF7 it was 177 µM (inactive); in the assay on SNB-78, 240 µM (inactive). Also, the GI50 in the assay with MOLT-4 is 133 µM (inactive); in the assay on SK-MEL-5, 109 µM (inactive); in the assay on DMS-273, 233 µM (inactive); in the assay on M19-MEL, 184 µM (inactive); with SK-MEL-2, 131 µM (inactive); with XF498, 125 µM (inactive). The GI50 in the assay on KM-20L2 was 170 µM (inactive); in the assay with A498, 136 µM (inactive).

Turning to `CC1=NCCc2cc3[nH]c4ccccc4c3cc21`, the GI50 with DLD-1 is 19.2 µM (inactive); with DMS-114, 11.6 µM (inactive); in the assay on SK-OV-3, 17.8 µM (inactive); in the assay with HOP-18 it was 18.7 µM (inactive); in the assay on MCF7 it was 15.1 µM (inactive); in the assay with SNB-78 it was 28.2 µM (inactive). In addition, the GI50 in the assay with MOLT-4 was 11.5 µM (inactive); with SK-MEL-5 it was 11.8 µM (inactive); with DMS-273, 13.6 µM (inactive); in the assay with M19-MEL, 14.9 µM (inactive); with SK-MEL-2, 11.3 µM (inactive); in the assay on XF498, 10.9 µM (inactive). The results for the GI50 with KM-20L2 and in the assay with A498 were 11.2 µM (inactive) and 11.5 µM (inactive), respectively.

Turning to `COc1ccccc1OCC(COC(=O)Nc1ccccc1)OC(=O)Nc1ccccc1` (configuration not stated), the GI50 in the assay with DLD-1 is > 100 µM (inactive); in the assay on DMS-114, 47.1 µM (inactive); with SK-OV-3, > 100 µM (inactive); in the assay with TK-10, > 100 µM (inactive); in the assay on HOP-18, 59.3 µM (inactive); in the assay on SNB-78, 43.3 µM (inactive). Moreover, the GI50 in the assay on SK-MEL-5 is 79.3 µM (inactive); in the assay on ACHN it was > 100 µM (inactive); in the assay on LXFL 529 it was 27.5 µM (inactive); in the assay with DMS-273, 54.6 µM (inactive); in the assay with SK-MEL-2, 23.1 µM (inactive); in the assay on XF498 it was 60.4 µM (inactive). For the same compound, the GI50 in the assay on KM-20L2 was > 100 µM (inactive); in the assay on A498, 60.3 µM (inactive).

`CCOC(=O)c1ccc(N(CCOS(C)(=O)=O)CCOS(C)(=O)=O)cc1`: the GI50 is 83.4 µM (inactive) in the assay on TK-10; 21.8 µM (inactive) in the assay with DU-145; 47.3 µM (inactive) in the assay with MCF7; 17.8 µM (inactive) with MOLT-4; 42.2 µM (inactive) in the assay with SK-MEL-5; 26 µM (inactive) with ACHN. In addition, the GI50 with BT-549 is 40600 nM (inactive); in the assay on SK-MEL-2, 55.2 µM (inactive); in the assay with A498, 35.2 µM (inactive); in the assay on MDA-MB-231, 91.2 µM (inactive).

On to `c1ccc(-n2cnnc2-c2nsc3ccccc23)cc1`, for which the GI50 is > 100 µM (inactive) in the assay on TK-10; 9.71 µM (inactive) with HOP-18; > 100 µM (inactive) in the assay on SNB-78; > 100 µM (inactive) in the assay on MOLT-4; > 100 µM (inactive) with SK-MEL-5; 67.3 µM (inactive) in the assay with ACHN. The GI50 in the assay with LXFL 529, in the assay on DMS-273, in the assay on M19-MEL, with SK-MEL-2 and in the assay with KM-20L2 was > 100 µM (inactive) in each case.

Turning to `C=C1C(=O)[C@@]23CC[C@H]4[C@@](C)(CCC[C@@]4(C)C(=O)OC)[C@@H]2CC[C@]1(O)C3`, the GI50 in the assay with DLD-1 is 0.32 µM (active); with SK-OV-3, 19.2 µM (inactive); in the assay on HOP-18, 2.07 µM (inactive); with MCF7, 2.12 µM (inactive); in the assay on MOLT-4 it was 0.271 µM (active); with SK-MEL-5, 1.93 µM (inactive). The GI50 with DMS-273 was 1.67 µM (inactive); in the assay with M19-MEL, 1.56 µM (inactive); in the assay with SK-MEL-2 it was 1.71 µM (inactive); in the assay on XF498 it was 1.75 µM (inactive); with A498, 1.71 µM (inactive).

For the compound `C/C=C1\C[C@@H]2C(OC)Nc3cc(O)c(OC)cc3C(=O)N2C1` (some centres not stated), the GI50 is 0.00319 µM (active) with DLD-1; 0.00118 µM (active) in the assay with DMS-114; < 0.01 µM (active) in the assay with SK-OV-3; < 0.0171 µM (active) in the assay on TK-10; < 0.01 µM (active) in the assay on DU-145; 0.0213 µM (active) in the assay on HOP-18. For the same compound, the GI50 in the assay with MCF7 was < 0.01 µM (active); with MOLT-4, < 0.01 µM (active); in the assay with SK-MEL-5, < 0.01 µM (active); in the assay on ACHN, 0.00179 µM (active); with LXFL 529, 0.00301 µM (active); in the assay with DMS-273, 0.00129 µM (active). For the same compound, the GI50 was 0.00612 µM (active) in the assay on M19-MEL; 4.37 nM (active) in the assay on BT-549; < 0.01 µM (active) in the assay with SK-MEL-2; 0.00887 µM (active) in the assay on KM-20L2; 0.0273 µM (active) in the assay on A498; < 0.01 µM (active) in the assay with MDA-MB-231.

Take `C[C@H]1O[C@@H](O[C@H]2[C@@H](O)C[C@H](O[C@H]3[C@@H](O)C[C@H](O[C@H]4CC[C@@]5(C)[C@H](CC[C@@H]6[C@@H]5CC[C@]5(C)[C@@H](C7=CC(=O)OC7)CC[C@]65O)C4)O[C@@H]3C)O[C@@H]2C)C[C@H](O)[C@@H]1O` [DIGITOXIN]: the GI50 was 0.045 µM (active) in the assay with SK-OV-3; 0.0252 µM (active) in the assay on TK-10; 0.0413 µM (active) in the assay with MCF7; < 0.0212 µM (active) in the assay on SK-MEL-5; < 0.015 µM (active) with ACHN; 18.9 nM (active) in the assay with BT-549. Also, the GI50 in the assay on SK-MEL-2 is 0.0641 µM (active); in the assay with MDA-MB-231 it was 0.129 µM (active).
